Holding throughout (assay): inhibition of tumour cell growth, NCI panel, 48 h
For assay [1], the system named is NCI-H460 lung.
The test system of assay [2] is MOLT-4 leukemia.
Assay [3] has as its system MDA-MB-231 breast.
Assay [4] concerns HOP-62 NSCLC.
The subject of assay [5] is SF-295 CNS.
The test system of assay [6] is OVCAR-5 ovarian.
Assay [7] relates to OVCAR-4 ovarian.
Assay [8] has as its system SK-MEL-5 melanoma.
The test system of assay [9] is T-47D breast.
The subject of assay [10] is HCC-2998 colon.

SMILES strings stand for the structures.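 Dose response: 5 concentrations. Exposure: 48 h. Format: 96-well plates. Endpoint: linear interpolation; highest concentration if not reached. TGI is the concentration that stops growth completely.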 Some results are limits rather than exact numbers.

As to `CCO/C(Cc1ccc(Cl)cc1)=N/NC(N)=S`, the TGI in assay [1], in assay [2], in [3], in assay [4], in assay [5] and in [6] was more than 100 µM in each case. Further, the TGI in assay [7], in assay [8], in [9] and in assay [10] was more than 100 µM each time.
As for `O=C1c2ccccc2C(=O)c2c(NCCCN3CCOCC3)ccc(NCCCN3CCOCC3)c21`, the TGI in assay [1] is 4.61 µM; in assay [2] it was 19.8 µM; in assay [3], 13.8 µM; in assay [4] it was 13.1 µM; in assay [5] it was 11.4 µM; in assay [6] it was 38.5 µM. In addition, the TGI in assay [7] was more than 100 µM; in [8], 6.79 µM; in assay [9], 83.9 µM; in assay [10], 27 µM.
As for `C=CC1(C)OC2(CCN(C(=O)OCC)CC2)OC1C` (stereo not given), the TGI in assay [1], in assay [2], in [3], in [4], in [5] and in assay [6] was more than 100 µM in each case. Moreover, the TGI in assay [7], in [8], in assay [9] and in assay [10] was more than 100 µM each time.
For the compound `O=C1NC(=S)NC(=O)C1=C/C=C/c1ccc([N+](=O)[O-])cc1`, the TGI in assay [1] stood at 54.3 µM; in [2] it was 16.6 µM; in assay [3] it was 35.5 µM; in assay [4] it was 34.9 µM; in [5], 33.1 µM; in assay [6], 40.2 µM. Moreover, the TGI in [7] turned out to be 36.1 µM; in assay [8], 42.5 µM; in [9] it was 71.4 µM; in assay [10], 35.7 µM.
On to `CCCCCCCCC/C=C1/CC(CO)(COC(=O)c2ccccc2)OC1=O` (stereo not given), for which the TGI in assay [1] was determined as 22 µM; in assay [2], 29.9 µM; in [3], 26.3 µM; in [4], 19 µM; in [5], 21.9 µM; in [6], 24.6 µM. For the same compound, the TGI came out at 26.5 µM in assay [7], 19.2 µM in [8], 25.1 µM in assay [9] and 27.8 µM in assay [10].
Turning to `COC1=CC(=O)C2=C(C[C@@]3(C)C(=C2)C(CO)=CC[C@H]3O)C1=O`, the TGI in assay [1] turned out to be 60.7 µM; in [2] it was 2.49 µM; in assay [3] it was 13.2 µM; in assay [4] it was 49.6 µM; in assay [5] it was 41.2 µM; in assay [6] it was 54.5 µM. In addition, the TGI in [7] was 31.8 µM; in assay [8], 32.2 µM; in assay [9], more than 100 µM; in assay [10], 83.1 µM.
`O=C1CC2SC(COCc3ccccc3)(CCN2Cc2ccccc2)C1` (stereo not given): the TGI in assay [1] was more than 100 µM; in assay [2] it was 91.9 µM; in assay [3] it was more than 100 µM; in assay [4], more than 100 µM; in assay [5] it was more than 100 µM; in assay [6], more than 100 µM. For the same compound, the TGI was more than 100 µM in assay [7], 34.8 µM in assay [8], more than 100 µM in assay [9] and more than 100 µM in assay [10].
As for `CCOC(=O)C(Cc1ccc(N(CCCl)CCCl)cc1)NC(=O)CCCN1C(=O)CN=C(c2ccccc2)c2cc(Cl)ccc21` (stereo not given), the TGI in assay [1] is more than 100 µM; in [2] it was more than 100 µM; in assay [3] it was 78.6 µM; in [4], more than 100 µM; in [5] it was more than 100 µM; in [6], more than 100 µM. In addition, the TGI in assay [7] is 98.3 µM; in [8], 25.2 µM; in assay [9], 11.2 µM; in assay [10], more than 49.7 µM.
As for `COC1/C=C/C(C)C(C(C)C(OC)C(C)CCC(=O)C(C)C(CC(=O)O)OC)OC(=O)/C=C/C=C(\C)CC(OC)CC2=CC(=O)O[C@H](C2)C(C)C(OC)CC(OC)/C=C/C(C)C(OC)C1` (stereo not given in full), the TGI in assay [1] is more than 4.35 µM; in [2], more than 4.35 µM; in assay [3], more than 4.35 µM; in assay [4], more than 4.35 µM; in assay [5], 2.19 µM; in assay [6], more than 4.35 µM. The TGI in assay [7], in [8], in assay [9] and in [10] was more than 4.35 µM each time.
As to `CC(=O)/C(C=Nc1c(C)n(C)n(C)c1=O)=C(/O)c1ccccc1`, the TGI in [1], in assay [2], in assay [3], in assay [4], in [5] and in assay [6] was more than 50 µM in each case. In addition, the TGI in [7], in [8], in assay [9] and in [10] was more than 50 µM each time.

Source of the values: PubChem BioAssay (NCI).
